The record followed here is patent publication US20080085889A1, “Amidomethyl-Substituted 1-(Carboxyalkyl) Cyclopentyl-Carbonylamino-Benzazepine-N-Acetic Acid Compounds, Process and Intermediate Products for Their Preparation and Pharmaceutical Compositions Containing Them” (SOLVAY PHARMACEUTICALS GmbH, priority 2003, published 2008).

Data set [1] is described as follows: Plasma protein binding, equilibrium dialysis, human plasma. Format: in vitro ADME. As to conditions: human plasma (10% for routine testing), 37° C., pH 7.4, 10% plasma (100% for low binders), read-out: % bound (human plasma) (converted). How it is done: (§1) Plasma protein binding of the test substances of Formula I was measured using a validated equilibrium dialysis method. The dialysis cells consisted of two halves separated by a semi-permeable membrane slightly tensioned in between. […] Before being used, the membranes were re-hydrated by soaking in water followed by the dialysis buffer. Plasma (10% for routine testing, and 100% for compounds found to have a low protein binding) was heated to 37° C. and adjusted to pH 7.4 before use. 5 μM test compound solutions (final dimethylsulfoxide concentration 0.5%) were prepared in isotonic phosphate buffer containing rat or human plasma. The plasma-containing solution was on one side of the membrane, and the plasma-free on the other. Incubations were performed overnight (10% plasma assay), or for 2 hours (100% plasma assay) in triplicate. The cells were mounted in a drive unit that rotated the cells and ensured a uniform equilibrium was obtained. The equilibrium was temperature controlled by the drive unit being immersed in a water bath at 37° C. At the end of the equilibration time, the cells were emptied. The solutions for each batch of compounds were combined into two groups (plasma-free and plasma-containing) then cassette analysed by LC-MS/MS using two sets of calibration standards for plasma-free (7 points) and plasma-containing solutions (6 points). The percentage of protein bound compound was calculated as follows: [formula] PC=sample concentration in protein containing side; PF=sample concentration in protein free side;
A general note: In equilibrium dialysis only unbound substance equilibrates across the membrane.

Data set [2] is described as follows: Plasma protein binding, equilibrium dialysis, rat plasma. Format: in vitro ADME. Particulars: rat plasma (10% for routine testing), 37° C., pH 7.4, 10% plasma (100% for low binders), read-out: % bound (rat plasma) (converted). How it is done: as §1
The target in data set [3] is T1, His6-tagged hSEP ectodomain (Homo sapiens, UniProt Q495T6).
T1 construct: His6-tagged hSEP ectodomain; His6; purchased Innogenetics, Ghent, Belgium
T1 sequence (Q495T6 49-779 limits assumed): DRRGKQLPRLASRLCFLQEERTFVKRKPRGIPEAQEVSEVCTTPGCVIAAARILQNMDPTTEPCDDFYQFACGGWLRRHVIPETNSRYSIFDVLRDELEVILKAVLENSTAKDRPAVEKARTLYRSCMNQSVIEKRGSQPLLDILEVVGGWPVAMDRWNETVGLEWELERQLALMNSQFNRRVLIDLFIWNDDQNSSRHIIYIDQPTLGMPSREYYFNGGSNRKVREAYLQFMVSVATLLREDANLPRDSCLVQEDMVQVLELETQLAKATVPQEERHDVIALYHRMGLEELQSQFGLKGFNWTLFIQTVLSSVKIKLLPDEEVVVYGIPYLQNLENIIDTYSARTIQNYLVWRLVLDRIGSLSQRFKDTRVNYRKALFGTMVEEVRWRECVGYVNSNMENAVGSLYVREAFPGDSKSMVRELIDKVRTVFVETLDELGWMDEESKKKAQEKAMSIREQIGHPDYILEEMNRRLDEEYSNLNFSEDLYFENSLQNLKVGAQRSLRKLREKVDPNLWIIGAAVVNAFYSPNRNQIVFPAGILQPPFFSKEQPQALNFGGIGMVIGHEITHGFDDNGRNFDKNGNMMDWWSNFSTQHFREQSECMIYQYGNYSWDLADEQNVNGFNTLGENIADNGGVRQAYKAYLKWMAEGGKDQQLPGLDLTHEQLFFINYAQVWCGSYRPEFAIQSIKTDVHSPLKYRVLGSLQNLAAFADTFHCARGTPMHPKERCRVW
In words: In vitro investigation of the hSEP-inhibitory action (fluorescence-quenched Big-ET-1 analogue, HPLC). In kind it is biochemical. Put shortly:
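Performed as for the NEP assay, with HPLC analysis and 10 nM phosphoramidon as the standard inhibitor. IC50 is the compound concentration blocking 50% of hSEP enzymatic activity.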

Data set [4] concerns formation of ET-1 from Big-ET-1. As to the kind of experiment: In vivo inhibition of the Big-ET-1-induced blood pressure increase in anaesthetised rats, i.v. single dose. On the set-up: species or system Rats (Sprague-Dawley). Particulars: 5 min before 0.5 nmol/kg Big-ET-1, negative values indicate inhibition. Put shortly: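 Anaesthetised (Rompun/Ketavet) Sprague-Dawley rats got test substance i.v. via jugular vein, as a rule 10 μmol/kg, or vehicle; 5 min later 0.5 nmol/kg Big-ET-1 infused over 1 min. Carotid pressure recorded every 5 min for 30 min; value is % inhibition versus vehicle of maximum Big-ET-1-induced systolic pressure rise, negative values meaning inhibition.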

[5] abbreviates: Rattus norvegicus, iv, 10 μmol/kg, read-out: % substance-related inhibition of the maximum Big-ET effect on SAP vs. control.

The term IC50 denotes the concentration that inhibits the measured activity by half. Turning to `CCN(CCCCN)C(=O)CC(CC1(C(=O)NC2CCc3ccccc3N(CC(=O)O)C2=O)CCCC1)C(=O)O` [Example 81, (2″rel1″)-4-[(4-aminobutyl)(ethyl)amino]-2-{[1-({[(3S)-1-(carboxymethyl)-2-oxo-2,3,4,5-tetrahydro-1H-1-benzazepin-3-yl]amino}carbonyl)cyclopentyl]methyl}-4-oxobutanoic acid], the fraction unbound at 5 μM in data set [1] was 0.34; in data set [2] it was 0.36. The IC50 in data set [3] was found to be 2 nM. Further, the change in vivo at 0.3 µmol/kg in data set [4] (Rattus norvegicus, iv, 0.3 μmol/kg, read-out: % substance-related inhibition of the maximum Big-ET effect on SAP vs. control) was -73%.
Turning to `CN(C)CCCN(C)C(=O)CC(CC1(C(=O)NC2CCc3ccccc3N(CC(=O)O)C2=O)CCCC1)C(=O)O` (stereo not shown) [Example 64, 2-[(1-{[1-(carboxymethyl)-2-oxo-2,3,4,5-tetrahydro-1H-1-benzazepin-3-yl]carbamoyl}cyclopentyl)methyl]-4-{[3-(dimethylamino)propyl](methyl)amino}-4-oxobutanoic acid], the fraction unbound at 5 μM in data set [1] was around 1; in data set [2], 0.83. For the same compound, in data set [3], the IC50 came to 5 nM. The change in vivo at 10 µmol/kg in data set [4] (setting [5]) is -108%.
The corresponding values for `CC(C)NC(=O)CC(CC1(C(=O)N[C@H]2CCc3ccccc3N(CC(=O)O)C2=O)CCCC1)C(=O)O` (stereo in doubt) [Example 3, (2″rel1″)-2-{[(3S)-1-({[1-(carboxymethyl)-2-oxo-2,3,4,5-tetrahydro-1H-1-benzazepin-3-yl]amino}-carbonyl)cyclopentyl]methyl}-4-(isopropylamino)-4-oxobutyric acid] are 0.58, 0.31, 7.8 nM and -94%.
As to “{(3S)-3-[({1-[(2″rel1″)-2-ethoxycarbonyl)-4-(isopropylamino)-4-oxobutyl]cyclopentyl}-carbonyl)amino]-2-oxo-2,3,4,5-tetrahydro-1H-1-benzazepin-1-yl}acetic acid [Example 4]”, in data set [4] (10 μmol/kg), the “% substance-related inhibition of the maximum Big-ET effect on SAP vs. control” value is reported as −95%.
